# ChEMBL document CHEMBL1201862, “PubChem BioAssay data set” (2004)
# Activity calls are given as the source filed them.
# How the values were obtained:
# Coagulation factor XII = molecular target: T1, Coagulation factor XII (Homo sapiens, UniProt P00748); assay type: functional;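 note: activated factor XIIa alpha cleaving a fluorogenic AMC peptide substrate; inhibitor potency from loss of enzyme activity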
# T1 sequence (P00748 whole entry): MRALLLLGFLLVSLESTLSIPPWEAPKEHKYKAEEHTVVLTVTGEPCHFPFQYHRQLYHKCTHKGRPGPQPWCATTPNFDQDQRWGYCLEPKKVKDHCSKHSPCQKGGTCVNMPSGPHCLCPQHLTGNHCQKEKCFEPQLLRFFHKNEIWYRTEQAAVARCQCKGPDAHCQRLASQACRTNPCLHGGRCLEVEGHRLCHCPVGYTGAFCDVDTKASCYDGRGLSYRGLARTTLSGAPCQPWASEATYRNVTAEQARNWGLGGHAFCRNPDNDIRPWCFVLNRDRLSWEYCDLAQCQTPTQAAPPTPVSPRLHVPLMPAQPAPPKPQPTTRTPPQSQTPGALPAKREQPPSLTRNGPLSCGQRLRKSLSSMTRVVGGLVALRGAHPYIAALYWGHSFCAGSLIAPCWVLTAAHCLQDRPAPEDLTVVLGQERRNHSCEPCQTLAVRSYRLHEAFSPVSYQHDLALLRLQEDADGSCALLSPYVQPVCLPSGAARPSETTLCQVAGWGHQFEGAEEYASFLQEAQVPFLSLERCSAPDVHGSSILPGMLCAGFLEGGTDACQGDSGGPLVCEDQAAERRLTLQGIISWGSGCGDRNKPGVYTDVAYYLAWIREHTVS
# [1] = LGR2 antagonists, dose response, cell-based, HEK293, CRE-luciferase reporter, cherry pick, set 2 (AID 743343); assay type: functional;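 note: transfected cells were stimulated with diluted bursicon conditioned medium after compound addition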
# [2] = molecular target: T2, Microphthalmia-associated transcription factor (Homo sapiens, UniProt O75030); assay: TRPM1 promoter luciferase signal decrease, dose response, MITF inhibitor project, cell-based, SK-MEL-5, cherry-picked, set 3 (AID 493073); assay type: functional
# T2 sequence (O75030 whole entry): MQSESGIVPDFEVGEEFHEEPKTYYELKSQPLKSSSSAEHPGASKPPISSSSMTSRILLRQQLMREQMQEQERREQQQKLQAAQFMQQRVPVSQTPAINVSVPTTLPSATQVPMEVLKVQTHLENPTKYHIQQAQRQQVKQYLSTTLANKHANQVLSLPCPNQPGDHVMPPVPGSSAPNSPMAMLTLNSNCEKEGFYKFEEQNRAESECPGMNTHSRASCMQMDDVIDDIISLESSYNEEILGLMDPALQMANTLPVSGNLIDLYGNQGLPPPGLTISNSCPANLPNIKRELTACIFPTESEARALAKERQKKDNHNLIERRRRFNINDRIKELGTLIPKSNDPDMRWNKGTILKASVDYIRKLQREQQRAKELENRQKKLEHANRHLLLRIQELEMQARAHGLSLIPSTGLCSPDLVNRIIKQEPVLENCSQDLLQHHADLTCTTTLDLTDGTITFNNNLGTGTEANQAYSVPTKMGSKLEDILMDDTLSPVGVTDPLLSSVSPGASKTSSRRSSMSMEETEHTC
# [3] = MC4R antagonists, dose response, counter-screen for LGR2 antagonist project, cell-based, plate reader, cherry pick (AID 743444); assay type: functional;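 note: transfected HEK 293 cells stimulated with alpha-MSH peptide; potency of inhibitors of the alpha-MSH evoked signal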
# [4] = molecular target: T3, Endoribonuclease toxin MazF (Escherichia coli K-12, UniProt P0AE70); assay: MazF toxin RNase activators, dose response, biochemical, fluorescence, single-stranded RNA substrate, uHTS hits (AID 588481); assay type: functional
# T3 sequence (P0AE70 whole entry): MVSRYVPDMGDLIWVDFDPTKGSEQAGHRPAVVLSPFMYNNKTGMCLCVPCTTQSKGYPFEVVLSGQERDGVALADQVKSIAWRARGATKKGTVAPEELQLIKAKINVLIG
# [5] = molecular target: T3, Endoribonuclease toxin MazF; assay: fluorescent RNA oligo signal without MazF, dose response, counter-screen for MazEF activator project, biochemical, fluorescence, single-stranded RNase substrate (AID 588502); assay type: functional
# [6] = inhibitors of firefly luciferase expression or activity, dose response, H4 neuroglioma cells, luminescence (AID 1990); assay type: functional, cell-based
# [7] = inhibitors of SNCA 5'UTR-driven reporter translation, confirmation, H4 neuroglioma cells, luminescence (AID 1988); assay type: functional, cell-based
# [8] = Luminescence Cell-Based Dose Response HTS to Identify Inhibitors of 5'UTR Stem-Loop Driven Prion Protein mRNA Translation in H4 Neuroglioblastoma Cells. [Related pubchem assays: 1827 (Project Summary), 1813 (Primary HTS)]; assay type: functional
# [9] = molecular target: T4, Sentrin-specific protease 7 (Homo sapiens, UniProt Q9BQF6); assay type: functional;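 note: Luminescence-based dose-response confirmation of ultra-high-throughput screening hits, measuring inhibition of SENP7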
# T4 sequence (Q9BQF6 whole entry): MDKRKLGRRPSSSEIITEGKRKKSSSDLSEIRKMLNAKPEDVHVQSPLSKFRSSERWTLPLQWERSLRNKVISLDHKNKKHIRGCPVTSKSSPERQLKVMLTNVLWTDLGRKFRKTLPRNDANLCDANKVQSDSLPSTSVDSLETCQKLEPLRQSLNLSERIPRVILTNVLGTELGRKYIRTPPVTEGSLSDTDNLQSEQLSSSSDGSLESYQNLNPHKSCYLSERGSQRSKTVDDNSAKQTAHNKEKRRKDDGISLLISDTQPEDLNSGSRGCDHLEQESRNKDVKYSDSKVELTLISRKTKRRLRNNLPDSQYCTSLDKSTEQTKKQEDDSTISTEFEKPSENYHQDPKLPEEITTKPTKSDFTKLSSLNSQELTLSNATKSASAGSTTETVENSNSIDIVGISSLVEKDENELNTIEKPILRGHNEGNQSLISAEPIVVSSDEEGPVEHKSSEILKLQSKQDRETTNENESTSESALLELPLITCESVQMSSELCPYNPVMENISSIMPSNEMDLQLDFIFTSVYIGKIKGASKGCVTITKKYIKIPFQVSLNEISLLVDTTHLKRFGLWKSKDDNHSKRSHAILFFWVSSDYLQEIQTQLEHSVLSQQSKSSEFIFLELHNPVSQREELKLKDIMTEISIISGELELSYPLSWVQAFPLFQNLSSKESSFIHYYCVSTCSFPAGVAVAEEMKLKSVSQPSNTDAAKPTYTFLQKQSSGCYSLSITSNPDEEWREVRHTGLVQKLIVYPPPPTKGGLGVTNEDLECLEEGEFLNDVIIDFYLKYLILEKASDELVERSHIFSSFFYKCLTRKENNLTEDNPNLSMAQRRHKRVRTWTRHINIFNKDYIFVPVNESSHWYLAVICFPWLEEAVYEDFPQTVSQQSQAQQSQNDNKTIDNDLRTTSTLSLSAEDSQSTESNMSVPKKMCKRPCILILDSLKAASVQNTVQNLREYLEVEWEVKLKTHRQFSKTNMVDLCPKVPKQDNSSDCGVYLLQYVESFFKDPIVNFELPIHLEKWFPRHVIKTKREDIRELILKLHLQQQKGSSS
# Caspase-3 = molecular target: T5, Caspase-3 (Homo sapiens, UniProt P42574); assay type: functional;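 note: Dose-response selectivity test against caspase-3 for candidate inhibitors of sentrin-specific proteases (SENPs)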
# T5 sequence (P42574 whole entry): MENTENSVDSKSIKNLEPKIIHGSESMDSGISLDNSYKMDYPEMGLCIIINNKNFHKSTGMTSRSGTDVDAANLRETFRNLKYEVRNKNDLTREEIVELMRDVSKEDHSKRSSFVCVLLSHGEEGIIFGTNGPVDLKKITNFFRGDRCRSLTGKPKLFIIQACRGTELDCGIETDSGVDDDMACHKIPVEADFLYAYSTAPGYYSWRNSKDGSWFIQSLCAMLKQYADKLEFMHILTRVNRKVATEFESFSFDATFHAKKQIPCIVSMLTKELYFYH
# [10] = molecular target: T6, Sentrin-specific protease 6 (Homo sapiens, UniProt Q9GZR1); assay type: functional;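 note: Luminescence-based dose-response confirmatory assay of SENP6 inhibition, following up an ultra-high-throughput screen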
# T6 sequence (Q9GZR1 whole entry): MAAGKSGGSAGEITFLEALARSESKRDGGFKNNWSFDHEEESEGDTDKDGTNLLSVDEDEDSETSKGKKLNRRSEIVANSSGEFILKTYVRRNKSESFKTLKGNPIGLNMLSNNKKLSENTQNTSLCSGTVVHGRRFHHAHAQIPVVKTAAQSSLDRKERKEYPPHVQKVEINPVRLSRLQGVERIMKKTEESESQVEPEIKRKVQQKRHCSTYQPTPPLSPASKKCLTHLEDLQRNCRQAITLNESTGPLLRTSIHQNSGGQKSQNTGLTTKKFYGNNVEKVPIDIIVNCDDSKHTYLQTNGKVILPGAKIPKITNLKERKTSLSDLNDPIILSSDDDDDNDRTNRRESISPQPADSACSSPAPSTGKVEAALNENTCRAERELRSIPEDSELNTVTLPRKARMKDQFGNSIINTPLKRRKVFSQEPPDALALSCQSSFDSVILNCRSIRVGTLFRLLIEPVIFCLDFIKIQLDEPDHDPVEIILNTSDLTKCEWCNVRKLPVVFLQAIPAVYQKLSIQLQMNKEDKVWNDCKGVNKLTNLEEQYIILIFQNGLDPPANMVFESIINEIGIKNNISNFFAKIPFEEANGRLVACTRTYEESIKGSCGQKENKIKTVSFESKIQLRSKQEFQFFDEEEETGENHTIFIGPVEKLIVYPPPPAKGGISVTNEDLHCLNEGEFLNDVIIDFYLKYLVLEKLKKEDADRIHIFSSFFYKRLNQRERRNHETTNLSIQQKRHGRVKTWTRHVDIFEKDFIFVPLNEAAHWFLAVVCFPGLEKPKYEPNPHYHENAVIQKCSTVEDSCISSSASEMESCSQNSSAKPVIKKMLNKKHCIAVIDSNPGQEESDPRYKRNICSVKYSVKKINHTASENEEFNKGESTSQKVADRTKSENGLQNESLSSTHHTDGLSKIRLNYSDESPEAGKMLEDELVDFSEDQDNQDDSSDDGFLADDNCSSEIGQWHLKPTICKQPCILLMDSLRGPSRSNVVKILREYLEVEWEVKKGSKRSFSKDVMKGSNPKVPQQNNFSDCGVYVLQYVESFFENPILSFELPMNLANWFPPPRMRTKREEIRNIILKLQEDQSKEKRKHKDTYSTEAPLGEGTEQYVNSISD
# [11] = molecular target: T7, Sentrin-specific protease 8 (Homo sapiens, UniProt Q96LD8); assay type: functional;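 note: luminescence read-out of SENP8 inhibition, dose-response confirmation following an ultra-high-throughput screen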
# T7 sequence (Q96LD8 whole entry): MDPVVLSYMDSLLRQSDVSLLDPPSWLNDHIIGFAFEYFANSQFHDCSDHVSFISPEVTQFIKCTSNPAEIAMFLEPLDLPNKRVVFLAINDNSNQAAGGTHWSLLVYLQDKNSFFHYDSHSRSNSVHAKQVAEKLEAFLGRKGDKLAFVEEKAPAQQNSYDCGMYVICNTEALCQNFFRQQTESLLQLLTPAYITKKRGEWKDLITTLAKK
# [12] = inhibitors of Bluetongue virus cytopathic effect, confirmation, arbovirus, BSR cells (AID 1250); assay type: functional;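 note: protection from viral cytopathic effect measured as cell viability by ATP luminescence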
# [13] = cytotoxicity in HEK-293T cells, dose response, cytotoxicity control for TCR NF-kB inhibitor project, luminescence, T-cell screen hits (AID 489026); assay type: functional, cell-based;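 note: cells exposed to compound about 14 hours before the viability readout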
compound,measurement,setting,value
COc1ccc(C(=O)CSc2nc3ccc[nH]c-3n2)cc1OC,IC50,Coagulation factor XII,> 50 µM (inactive)
O=C(NC1CCCc2ccccc21)C1CCN(S(=O)(=O)c2ccccc2F)CC1 (centres undefined),IC50,Coagulation factor XII,> 50 µM (inactive)
CCOc1ccc(C(=O)Nc2cccc(C(=O)O)c2C)cc1Cl,AC50,[1],8.96 µM (active)
same,AC50,[2],8.56 µM (active)
same,AC50,[3],10.1 µM (active)
COc1cc2[nH]c(=O)n(Cc3ccc(C(=O)NC4CCCC4)cc3)c(=O)c2cc1OC,EC50,[4],> 99 µM (inactive)
same,EC50,[5],> 99 µM (inactive)
Cc1cc(C(=O)CN2C(=O)c3ccccc3S2(=O)=O)c(C)n1-c1ccccc1,EC50,[6],7.71 µM (active)
same,AC50,[2],3.45 µM (active)
same,EC50,[7],5.88 µM (active)
same,EC50,[8],9.5 µM (active)
Cc1cc(NC(=O)COC(=O)C2CCN(S(=O)(=O)c3c(Cl)cccc3Cl)CC2)no1,IC50,Coagulation factor XII,> 50 µM (inactive)
O=C(Nc1nc2c(s1)CCCC2)c1ccc(Br)s1,IC50,[9],4.82 µM (active)
same,IC50,Caspase-3,24.9 µM (active)
same,IC50,[10],5.95 µM (active)
same,IC50,[11],25.4 µM (active)
same,IC50,[12],25.7 µM (active)
CCOc1ccc(-c2[nH]ncc2-c2ccc(OC)c(OC)c2)c(O)c1,IC50,[13],75.8 µM (inactive)
CCOc1cc(NC(=O)CCl)c(OCC)cc1NC(=O)CCl,AC50,[2],5.51 µM (active)
